Results from patent publication US20250034216A1, “STEREOSELECTIVE COVALENT LIGANDS FOR ONCOGENIC AND IMMUNOLOGICAL PROTEINS” (The Scripps Research Institute, priority 2021, published 2025).

Tests used:
Assay in all cases: IA-DTB cysteine engagement
Assay type in all cases: binding
Conditions in all cases: 22Rv1 cells, 20 μM probe, 1 h, relative to DMSO
ITPR2_C579 = biological target: T1, ITPR2_C579 (Homo sapiens, UniProt Q14571)
T1 construct: endogenous in cells; host or cells: 22Rv1
How it was run: (§1)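 Competitive chemoproteomics: residual cysteine reactivity toward IA-DTB in lysates from probe-treated cells was quantified by TMT reporter ions relative to DMSO-treated controls. Replicates sharing cell line, probe, concentration and duration were averaged.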

SUPT3H_C268 = biological target: T2, SUPT3H_C268 (Homo sapiens, UniProt O75486)
T2 construct: endogenous in cells; host or cells: 22Rv1
T2 sequence (O75486 1-317): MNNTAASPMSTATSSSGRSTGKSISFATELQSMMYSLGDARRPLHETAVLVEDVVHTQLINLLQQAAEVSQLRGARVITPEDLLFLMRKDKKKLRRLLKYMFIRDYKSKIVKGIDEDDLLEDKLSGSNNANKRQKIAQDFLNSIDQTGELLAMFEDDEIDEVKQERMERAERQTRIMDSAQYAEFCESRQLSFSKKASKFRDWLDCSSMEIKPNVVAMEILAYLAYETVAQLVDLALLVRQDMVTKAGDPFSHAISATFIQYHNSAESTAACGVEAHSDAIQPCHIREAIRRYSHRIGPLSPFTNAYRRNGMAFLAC
How it was run: as §1

ABCB8_C461 = biological target: T3, ABCB8_C461 (Homo sapiens, UniProt Q9NUT2)
T3 construct: endogenous in cells; host or cells: 22Rv1
T3 sequence (Q9NUT2 26-735): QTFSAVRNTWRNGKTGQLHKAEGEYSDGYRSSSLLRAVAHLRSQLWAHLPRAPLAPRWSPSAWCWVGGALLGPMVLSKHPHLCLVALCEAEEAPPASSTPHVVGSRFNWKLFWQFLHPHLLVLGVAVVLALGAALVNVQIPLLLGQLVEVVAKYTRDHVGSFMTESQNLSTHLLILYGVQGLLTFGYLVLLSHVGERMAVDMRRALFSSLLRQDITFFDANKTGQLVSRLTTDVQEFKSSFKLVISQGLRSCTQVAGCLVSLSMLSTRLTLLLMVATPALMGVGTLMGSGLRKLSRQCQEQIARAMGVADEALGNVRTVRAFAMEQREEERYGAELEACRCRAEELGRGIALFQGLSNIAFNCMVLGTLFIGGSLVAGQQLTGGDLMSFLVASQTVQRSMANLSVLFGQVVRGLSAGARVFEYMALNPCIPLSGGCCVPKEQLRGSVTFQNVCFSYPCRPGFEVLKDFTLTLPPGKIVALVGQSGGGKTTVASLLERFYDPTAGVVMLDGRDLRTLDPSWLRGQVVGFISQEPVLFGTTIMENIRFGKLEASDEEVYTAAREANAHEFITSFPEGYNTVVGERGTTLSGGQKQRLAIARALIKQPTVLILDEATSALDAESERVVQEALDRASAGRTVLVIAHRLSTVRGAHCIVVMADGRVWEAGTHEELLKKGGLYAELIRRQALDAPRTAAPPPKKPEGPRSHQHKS
How it was run: as §1

T1 sequence (Q14571 whole entry): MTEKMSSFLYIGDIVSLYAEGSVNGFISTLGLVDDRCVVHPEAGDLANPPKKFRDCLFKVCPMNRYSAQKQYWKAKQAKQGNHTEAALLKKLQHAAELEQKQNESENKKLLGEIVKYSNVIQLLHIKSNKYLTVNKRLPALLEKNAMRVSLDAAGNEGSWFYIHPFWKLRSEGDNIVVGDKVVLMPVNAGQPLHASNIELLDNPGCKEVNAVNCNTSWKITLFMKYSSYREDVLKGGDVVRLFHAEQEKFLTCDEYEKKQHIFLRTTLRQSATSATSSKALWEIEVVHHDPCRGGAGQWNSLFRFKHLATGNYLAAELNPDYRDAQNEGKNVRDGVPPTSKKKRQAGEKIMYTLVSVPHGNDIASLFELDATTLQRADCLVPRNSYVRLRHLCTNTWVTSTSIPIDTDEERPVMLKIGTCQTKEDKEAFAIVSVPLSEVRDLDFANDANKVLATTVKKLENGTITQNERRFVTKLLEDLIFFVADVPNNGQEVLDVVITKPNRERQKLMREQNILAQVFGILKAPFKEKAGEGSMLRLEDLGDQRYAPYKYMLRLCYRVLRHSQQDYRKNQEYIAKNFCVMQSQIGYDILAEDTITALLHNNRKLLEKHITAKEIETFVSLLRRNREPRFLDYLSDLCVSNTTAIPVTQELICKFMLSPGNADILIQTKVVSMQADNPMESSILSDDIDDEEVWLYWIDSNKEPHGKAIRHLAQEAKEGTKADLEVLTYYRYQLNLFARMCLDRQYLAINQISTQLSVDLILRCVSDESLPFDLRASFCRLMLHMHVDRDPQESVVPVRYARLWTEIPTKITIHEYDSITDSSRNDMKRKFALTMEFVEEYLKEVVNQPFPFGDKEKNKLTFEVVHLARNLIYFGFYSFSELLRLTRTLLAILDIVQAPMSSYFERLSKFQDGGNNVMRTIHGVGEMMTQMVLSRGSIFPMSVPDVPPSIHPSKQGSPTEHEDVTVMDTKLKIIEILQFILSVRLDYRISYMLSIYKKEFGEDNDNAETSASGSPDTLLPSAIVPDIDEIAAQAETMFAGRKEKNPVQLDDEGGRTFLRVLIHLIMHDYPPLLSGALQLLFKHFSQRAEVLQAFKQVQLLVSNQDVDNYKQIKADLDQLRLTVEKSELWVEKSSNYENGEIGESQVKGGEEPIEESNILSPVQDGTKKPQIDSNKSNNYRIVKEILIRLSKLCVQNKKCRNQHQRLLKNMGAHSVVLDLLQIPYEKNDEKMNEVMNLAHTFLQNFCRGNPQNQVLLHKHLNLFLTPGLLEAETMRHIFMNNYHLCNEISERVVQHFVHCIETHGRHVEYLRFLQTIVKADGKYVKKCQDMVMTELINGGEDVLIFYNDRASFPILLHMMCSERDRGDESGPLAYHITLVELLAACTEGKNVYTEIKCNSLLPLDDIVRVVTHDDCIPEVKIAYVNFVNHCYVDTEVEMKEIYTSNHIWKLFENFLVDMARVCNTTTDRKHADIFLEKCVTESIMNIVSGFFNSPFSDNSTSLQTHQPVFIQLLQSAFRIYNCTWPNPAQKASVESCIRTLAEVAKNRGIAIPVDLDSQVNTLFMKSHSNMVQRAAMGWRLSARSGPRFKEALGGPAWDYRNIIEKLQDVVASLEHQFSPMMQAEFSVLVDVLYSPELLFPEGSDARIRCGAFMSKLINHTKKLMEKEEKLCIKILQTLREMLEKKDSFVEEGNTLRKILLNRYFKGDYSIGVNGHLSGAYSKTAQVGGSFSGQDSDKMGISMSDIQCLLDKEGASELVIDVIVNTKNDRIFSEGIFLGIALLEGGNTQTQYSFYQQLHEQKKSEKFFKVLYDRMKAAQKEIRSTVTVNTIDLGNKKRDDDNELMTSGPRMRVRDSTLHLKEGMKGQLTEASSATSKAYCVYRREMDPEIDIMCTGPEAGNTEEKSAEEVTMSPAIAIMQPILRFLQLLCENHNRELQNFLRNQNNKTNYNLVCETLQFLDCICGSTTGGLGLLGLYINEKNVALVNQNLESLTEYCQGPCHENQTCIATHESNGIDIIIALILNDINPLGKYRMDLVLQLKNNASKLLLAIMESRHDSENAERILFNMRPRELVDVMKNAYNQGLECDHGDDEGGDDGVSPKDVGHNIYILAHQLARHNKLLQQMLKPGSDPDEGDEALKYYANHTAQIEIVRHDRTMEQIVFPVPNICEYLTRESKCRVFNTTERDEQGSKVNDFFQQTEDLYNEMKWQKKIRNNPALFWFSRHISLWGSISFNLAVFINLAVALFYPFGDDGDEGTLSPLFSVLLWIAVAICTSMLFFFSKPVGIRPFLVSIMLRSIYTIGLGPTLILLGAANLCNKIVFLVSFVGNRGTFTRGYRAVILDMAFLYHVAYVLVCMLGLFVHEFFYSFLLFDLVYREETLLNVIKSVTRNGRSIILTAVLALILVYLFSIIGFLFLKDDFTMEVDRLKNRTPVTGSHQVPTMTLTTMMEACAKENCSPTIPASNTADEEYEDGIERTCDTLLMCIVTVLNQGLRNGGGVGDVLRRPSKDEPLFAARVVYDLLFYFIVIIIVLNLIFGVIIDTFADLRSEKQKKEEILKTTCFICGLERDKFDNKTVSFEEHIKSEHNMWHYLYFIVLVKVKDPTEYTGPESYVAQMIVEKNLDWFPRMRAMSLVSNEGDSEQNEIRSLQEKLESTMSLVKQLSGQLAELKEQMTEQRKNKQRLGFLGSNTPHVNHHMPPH

Row | SMILES | % engagement ITPR2_C579 (ITPR2_C579) [%] | % engagement SUPT3H_C268 (SUPT3H_C268) [%] | % engagement ABCB8_C461 (ABCB8_C461) [%]
1 | C=CC(=O)N1C[C@@H](c2ccc(Br)cc2)[C@H]1C(=O)Nc1cccc2cccnc12 [MY-1A, (2S,3R)-1-acryloyl-3-(4-bromophenyl)-N-(quinolin-8-yl)azetidine-2-carboxamide] | 7.75 | 27 | −3
2 | C=CC(=O)N1C[C@H](c2ccc(Br)cc2)[C@@H]1C(=O)Nc1cccc2cccnc12 [MY-1B, (2R,3S)-1-acryloyl-3-(4-bromophenyl)-N-(quinolin-8-yl)azetidine-2-carboxamide] | 11.25 | 34.5 | 0
3 | C=CC(=O)N1C[C@H](c2ccc(Br)cc2)[C@H]1C(=O)Nc1cccc2cccnc12 [MY-3A, (2S,3S)-1-acryloyl-3-(4-bromophenyl)-N-(quinolin-8-yl)azetidine-2-carboxamide] | 4.5 | 62.5 | 32.5
4 | C=CC(=O)N1C[C@H](c2ccc(Br)cc2)[C@H]1C(=O)Nc1cccc2cccnc12 [MY-3B, (2S,3S)-1-acryloyl-3-(4-bromophenyl)-N-(quinolin-8-yl)azetidine-2-carboxamide] | 70.75 | 70.5 | 66.5
